Assay results as given in PubChem BioAssay (NCI).
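GI50: concentration for 50% inhibition of growth. TGI: concentration producing complete growth inhibition.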

Assays:
Assay in all cases: DTP human tumour cell line panel, 384-well format
UACC-62 melanoma = system: UACC-62 melanoma
SNB-75 CNS = system: SNB-75 CNS
DU-145 prostate = system: DU-145 prostate
OVCAR-4 ovarian = system: OVCAR-4 ovarian
NCI-H226 lung = system: NCI-H226 lung
HOP-62 NSCLC = system: HOP-62 NSCLC
SK-MEL-5 melanoma = system: SK-MEL-5 melanoma
HT29 colon = system: HT29 colon
SF-268 CNS = system: SF-268 CNS
HOP-92 NSCLC = system: HOP-92 NSCLC
BT-549 breast = system: BT-549 breast
MDA-MB-231 breast = system: MDA-MB-231 breast
HL-60(TB) leukemia = system: HL-60(TB) leukemia
NCI-H23 lung = system: NCI-H23 lung
HCT-15 colon = system: HCT-15 colon
UO-31 renal = system: UO-31 renal
KM12 colon = system: KM12 colon
MOLT-4 leukemia = system: MOLT-4 leukemia
MDA-MB-468 breast = system: MDA-MB-468 breast
T-47D breast = system: T-47D breast
CAKI-1 renal = system: CAKI-1 renal
EKVX NSCLC = system: EKVX NSCLC
NCI-H522 lung = system: NCI-H522 lung
SF-539 CNS = system: SF-539 CNS
SR leukemia = system: SR leukemia
PC-3 prostate = system: PC-3 prostate
K-562 leukemia = system: K-562 leukemia
OVCAR-5 ovarian = system: OVCAR-5 ovarian
SF-295 CNS = system: SF-295 CNS
MALME-3M melanoma = system: MALME-3M melanoma
SK-OV-3 ovarian = system: SK-OV-3 ovarian
TK-10 renal = system: TK-10 renal
HCT-116 colon = system: HCT-116 colon
MDA-MB-435 melanoma = system: MDA-MB-435 melanoma
M14 melanoma = system: M14 melanoma
A549 NSCLC = system: A549 NSCLC
786-0 renal = system: 786-0 renal
SNB-19 CNS = system: SNB-19 CNS
A498 renal = system: A498 renal
OVCAR-8 ovarian = system: OVCAR-8 ovarian
OVCAR-3 ovarian = system: OVCAR-3 ovarian
IGROV1 ovarian = system: IGROV1 ovarian
HS 578T breast = system: HS 578T breast
ACHN renal = system: ACHN renal
SN12C renal = system: SN12C renal
SK-MEL-2 melanoma = system: SK-MEL-2 melanoma
MCF7 breast = system: MCF7 breast
COLO 205 colon = system: COLO 205 colon
SW-620 colon = system: SW-620 colon
U251 glioblastoma = system: U251 glioblastoma
NCI-H460 NSCLC = system: NCI-H460 NSCLC
NCI-H322M lung = system: NCI-H322M lung
SK-MEL-28 melanoma = system: SK-MEL-28 melanoma
UACC-257 melanoma = system: UACC-257 melanoma

## C[C@]12CC[C@@H]3c4ccc(O)cc4C[C@@H](CCCCCCCCCS(=O)CCCC(F)(F)C(F)(F)F)[C@H]3[C@@H]1CC[C@@H]2O (some centres not stated)
UACC-62 melanoma
  GI50: > 100 µM
  TGI: > 100 µM
SNB-75 CNS
  GI50: > 100 µM
  TGI: > 100 µM
DU-145 prostate
  GI50: > 100 µM
  TGI: > 100 µM
OVCAR-4 ovarian
  GI50: > 100 µM
  TGI: > 100 µM
NCI-H226 lung
  GI50: > 100 µM
  TGI: > 100 µM
HOP-62 NSCLC
  GI50: > 100 µM
  TGI: > 100 µM
SK-MEL-5 melanoma
  GI50: 27.4 µM
  TGI: > 100 µM
HT29 colon
  GI50: 49.9 µM
  TGI: > 100 µM
SF-268 CNS
  GI50: > 100 µM
  TGI: > 100 µM
HOP-92 NSCLC
  GI50: > 100 µM
  TGI: > 100 µM
BT-549 breast
  GI50: > 100 µM
  TGI: > 100 µM
MDA-MB-231 breast
  GI50: > 100 µM
  TGI: > 100 µM
HL-60(TB) leukemia
  GI50: > 100 µM
  TGI: > 100 µM
NCI-H23 lung
  GI50: > 100 µM
  TGI: > 100 µM
HCT-15 colon
  GI50: 67.4 µM
  TGI: > 100 µM
UO-31 renal
  GI50: > 100 µM
  TGI: > 100 µM
KM12 colon
  GI50: 75.8 µM
  TGI: > 100 µM
MOLT-4 leukemia
  GI50: 8.42 µM
  TGI: > 100 µM
MDA-MB-468 breast
  GI50: 2.37 µM
  TGI: > 100 µM
T-47D breast
  GI50: 1.93 µM
  TGI: > 100 µM
CAKI-1 renal
  GI50: > 100 µM
  TGI: > 100 µM
EKVX NSCLC
  GI50: > 100 µM
  TGI: > 100 µM
NCI-H522 lung
  GI50: > 100 µM
  TGI: > 100 µM
SF-539 CNS
  GI50: > 100 µM
  TGI: > 100 µM
SR leukemia
  GI50: > 100 µM
  TGI: > 100 µM
PC-3 prostate
  GI50: > 100 µM
  TGI: > 100 µM
K-562 leukemia
  GI50: 7.51 µM
  TGI: > 100 µM
OVCAR-5 ovarian
  GI50: > 100 µM
  TGI: > 100 µM
SF-295 CNS
  GI50: 9.39 µM
  TGI: > 100 µM
MALME-3M melanoma
  GI50: > 100 µM
  TGI: > 100 µM
SK-OV-3 ovarian
  GI50: > 100 µM
  TGI: > 100 µM
TK-10 renal
  GI50: > 100 µM
  TGI: > 100 µM
HCT-116 colon
  GI50: > 100 µM
  TGI: > 100 µM
MDA-MB-435 melanoma
  GI50: > 100 µM
  TGI: > 100 µM
M14 melanoma
  GI50: > 100 µM
  TGI: > 100 µM
A549 NSCLC
  GI50: > 100 µM
  TGI: > 100 µM
786-0 renal
  GI50: > 100 µM
  TGI: > 100 µM
SNB-19 CNS
  GI50: > 100 µM
  TGI: > 100 µM
A498 renal
  GI50: > 100 µM
  TGI: > 100 µM
OVCAR-8 ovarian
  GI50: > 100 µM
  TGI: > 100 µM
OVCAR-3 ovarian
  GI50: > 100 µM
  TGI: > 100 µM
IGROV1 ovarian
  GI50: > 100 µM
  TGI: > 100 µM
HS 578T breast
  GI50: > 100 µM
  TGI: > 100 µM
ACHN renal
  GI50: > 100 µM
  TGI: > 100 µM
SN12C renal
  GI50: > 100 µM
  TGI: > 100 µM
SK-MEL-2 melanoma
  GI50: > 100 µM
  TGI: > 100 µM
MCF7 breast
  TGI: > 100 µM
COLO 205 colon
  GI50: 77.1 µM
  TGI: > 100 µM
SW-620 colon
  GI50: > 100 µM
  TGI: > 100 µM
U251 glioblastoma
  GI50: > 100 µM
  TGI: > 100 µM
NCI-H460 NSCLC
  GI50: > 100 µM
  TGI: > 100 µM
NCI-H322M lung
  GI50: 76.8 µM
  TGI: > 100 µM
SK-MEL-28 melanoma
  GI50: > 100 µM
  TGI: > 100 µM
UACC-257 melanoma
  GI50: > 100 µM
  TGI: > 100 µM
